Columns and labels:
Assay in all cases: viability relative to DMSO control (fraction); higher = less drug effect (more viable cells)
Conditions in all cases: 48 h
[1] = tested on: primary DLBCL patient cells (S082)
How it was run: (§1)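 Using 384-well plates with compounds already plated at five concentrations, one well per concentration, 4 × 10^4 primary mononuclear tumour cells were added per well. Cells were Ficoll-isolated from blood or bone marrow or came from processed lymph node, fresh or cryopreserved. They were kept for 48 h at 37 °C and 5% CO2 in RPMI-1640 supplemented with penicillin/streptomycin, L-glutamine and human serum, and viability was read as CellTiter-Glo luminescence relative to the median of 16 inner DMSO wells.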

[2] = tested on: primary AML patient cells (S091)
How it was run: as §1

[3] = tested on: primary MCL patient cells (S041)
How it was run: as §1

[4] = tested on: primary B-PLL patient cells (S016)
How it was run: as §1

[5] = tested on: primary AML patient cells (S019)
How it was run: as §1

[6] = tested on: primary AML patient cells (S089)
How it was run: as §1

[7] = tested on: primary AML patient cells (S071)
How it was run: as §1

[8] = tested on: primary T-NHL patient cells (S058)
How it was run: as §1

[9] = tested on: primary CLL patient cells (S031)
How it was run: as §1

[10] = tested on: primary AML patient cells (S037)
How it was run: as §1

[11] = tested on: primary AML patient cells (S060)
How it was run: as §1

[12] = tested on: primary FL patient cells (S087)
How it was run: as §1

[13] = tested on: primary DLBCL patient cells (S049)
How it was run: as §1

[14] = tested on: primary AML patient cells (S011)
How it was run: as §1

[15] = tested on: primary AML patient cells (S085)
How it was run: as §1

[16] = tested on: primary ALL patient cells (S088)
How it was run: as §1

[17] = tested on: primary DLBCL patient cells (S076)
How it was run: as §1

N#CC[C@H](C1CCCC1)n1cc(-c2ncnc3[nH]ccc23)cn1 [Ruxolitinib]
viability ([1]; 0.024 µM): 1.01 | viability ([1]; 0.12 µM): 0.904 | viability ([1]; 0.6 µM): 1.03 | viability ([1]; 3 µM): 1.04 | viability ([1]; 15 µM): 0.913 | viability ([2]; 0.024 µM): 0.915 | viability ([2]; 0.12 µM): 1.09 | viability ([2]; 0.6 µM): 0.889 | viability ([2]; 3 µM): 1.12 | viability ([2]; 15 µM): 1.28 | viability ([3]; 0.024 µM): 1.02 | viability ([3]; 0.12 µM): 0.972 | viability ([3]; 0.6 µM): 0.997 | viability ([3]; 3 µM): 1.01 | viability ([3]; 15 µM): 0.952 | viability ([4]; 0.024 µM): 1.16 | viability ([4]; 0.12 µM): 0.98 | viability ([4]; 0.6 µM): 1.08 | viability ([4]; 3 µM): 0.965 | viability ([4]; 15 µM): 0.894 | viability ([5]; 0.024 µM): 1.09 | viability ([5]; 0.12 µM): 0.873 | viability ([5]; 0.6 µM): 1.03 | viability ([5]; 3 µM): 0.849 | viability ([5]; 15 µM): 0.716 | viability ([6]; 0.024 µM): 0.658 | viability ([6]; 0.12 µM): 0.804 | viability ([6]; 0.6 µM): 0.603 | viability ([6]; 3 µM): 0.686 | viability ([6]; 15 µM): 0.704 | viability ([7]; 0.024 µM): 1.01 | viability ([7]; 0.12 µM): 0.988 | viability ([7]; 0.6 µM): 0.956 | viability ([7]; 3 µM): 0.944 | viability ([7]; 15 µM): 0.744 | viability ([8]; 0.024 µM): 0.983 | viability ([8]; 0.12 µM): 0.887 | viability ([8]; 0.6 µM): 0.924 | viability ([8]; 3 µM): 0.904 | viability ([8]; 15 µM): 0.8 | viability ([9]; 0.024 µM): 1.06 | viability ([9]; 0.12 µM): 1 | viability ([9]; 0.6 µM): 1.04 | viability ([9]; 3 µM): 0.896 | viability ([9]; 15 µM): 0.689 | viability ([10]; 0.024 µM): 1.02 | viability ([10]; 0.12 µM): 0.956 | viability ([10]; 0.6 µM): 0.989 | viability ([10]; 3 µM): 0.97 | viability ([10]; 15 µM): 0.965 | viability ([11]; 0.024 µM): 0.992 | viability ([11]; 0.12 µM): 0.932 | viability ([11]; 0.6 µM): 0.924 | viability ([11]; 3 µM): 0.919 | viability ([11]; 15 µM): 0.896 | viability ([12]; 0.024 µM): 1.02 | viability ([12]; 0.12 µM): 0.929 | viability ([12]; 0.6 µM): 0.942 | viability ([12]; 3 µM): 0.962 | viability ([12]; 15 µM): 0.871 | viability ([13]; 0.024 µM): 1.03 | viability ([13]; 0.12 µM): 0.91 | viability ([13]; 0.6 µM): 0.994 | viability ([13]; 3 µM): 0.981 | viability ([13]; 15 µM): 1 | viability ([14]; 0.024 µM): 1.26 | viability ([14]; 0.12 µM): 0.955 | viability ([14]; 0.6 µM): 1.06 | viability ([14]; 3 µM): 0.919 | viability ([14]; 15 µM): 0.743 | viability ([15]; 0.024 µM): 1.42 | viability ([15]; 0.12 µM): 0.921 | viability ([15]; 0.6 µM): 0.861 | viability ([15]; 3 µM): 0.806 | viability ([15]; 15 µM): 0.651 | viability ([16]; 0.024 µM): 0.974 | viability ([16]; 0.12 µM): 0.912 | viability ([16]; 0.6 µM): 0.994 | viability ([16]; 3 µM): 0.986 | viability ([16]; 15 µM): 0.94 | viability ([17]; 0.024 µM): 1.05 | viability ([17]; 0.12 µM): 0.823 | viability ([17]; 0.6 µM): 0.82 | viability ([17]; 3 µM): 0.702 | viability ([17]; 15 µM): 0.719

N#Cc1ccnc(N2C(=O)CC[C@H]2C(=O)N(c2cncc(F)c2)[C@H](C(=O)NC2CC(F)(F)C2)c2ccccc2Cl)c1 [AG-120]
viability ([1]; 0.024 µM): 1.03 | viability ([1]; 0.12 µM): 1.06 | viability ([1]; 0.6 µM): 0.895 | viability ([1]; 3 µM): 1.05 | viability ([1]; 15 µM): 0.935 | viability ([2]; 0.024 µM): 1.02 | viability ([2]; 0.12 µM): 0.975 | viability ([2]; 0.6 µM): 1.03 | viability ([2]; 3 µM): 1.56 | viability ([2]; 15 µM): 1.03 | viability ([3]; 0.024 µM): 0.99 | viability ([3]; 0.12 µM): 1.01 | viability ([3]; 0.6 µM): 0.928 | viability ([3]; 3 µM): 1 | viability ([3]; 15 µM): 0.886 | viability ([4]; 0.024 µM): 1.16 | viability ([4]; 0.12 µM): 1.18 | viability ([4]; 0.6 µM): 1 | viability ([4]; 3 µM): 1.12 | viability ([4]; 15 µM): 0.86 | viability ([5]; 0.024 µM): 1.43 | viability ([5]; 0.12 µM): 1.43 | viability ([5]; 0.6 µM): 0.934 | viability ([5]; 3 µM): 1.34 | viability ([5]; 15 µM): 0.833 | viability ([6]; 0.024 µM): 0.664 | viability ([6]; 0.12 µM): 0.916 | viability ([6]; 0.6 µM): 0.818 | viability ([6]; 3 µM): 0.903 | viability ([6]; 15 µM): 0.827 | viability ([7]; 0.024 µM): 1.03 | viability ([7]; 0.12 µM): 1.05 | viability ([7]; 0.6 µM): 0.922 | viability ([7]; 3 µM): 0.919 | viability ([7]; 15 µM): 0.751 | viability ([9]; 0.024 µM): 0.982 | viability ([9]; 0.12 µM): 0.912 | viability ([9]; 0.6 µM): 0.773 | viability ([9]; 3 µM): 0.807 | viability ([9]; 15 µM): 0.715 | viability ([10]; 0.024 µM): 1.04 | viability ([10]; 0.12 µM): 1.04 | viability ([10]; 0.6 µM): 0.952 | viability ([10]; 3 µM): 1.01 | viability ([10]; 15 µM): 0.888 | viability ([11]; 0.024 µM): 1.05 | viability ([11]; 0.12 µM): 1.1 | viability ([11]; 0.6 µM): 0.937 | viability ([11]; 3 µM): 1.16 | viability ([11]; 15 µM): 0.938 | viability ([12]; 0.024 µM): 0.946 | viability ([12]; 0.12 µM): 0.984 | viability ([12]; 0.6 µM): 0.911 | viability ([12]; 3 µM): 1.01 | viability ([12]; 15 µM): 0.892 | viability ([14]; 0.024 µM): 1.76 | viability ([14]; 0.12 µM): 0.843 | viability ([14]; 0.6 µM): 0.852 | viability ([14]; 3 µM): 0.785 | viability ([14]; 15 µM): 0.657 | viability ([15]; 0.024 µM): 1.07 | viability ([15]; 0.12 µM): 1 | viability ([15]; 0.6 µM): 0.959 | viability ([15]; 3 µM): 1.03 | viability ([15]; 15 µM): 0.886 | viability ([16]; 0.024 µM): 0.727 | viability ([16]; 0.12 µM): 0.745 | viability ([16]; 0.6 µM): 0.533 | viability ([16]; 3 µM): 0.7 | viability ([16]; 15 µM): 0.499

— the supplement of paper PMC10733146
